# Results: ChEMBL document CHEMBL1158405, “Identification of nobiletin, a polymethoxyflavonoid, as an enhancer of adiponectin secretion” (2009)
# Active and inactive are the calls of the source. No cut-off for these calls is given here.
# Legend:
# ST-13 [1] = assay: Induction of preadipocyte differentiation in mouse ST-13 cells assessed as lipid accumulation at 10 uM within 11 days by oil red-staining relative to control; format: functional, cell-based
# ST-13 [2] = assay: Induction of preadipocyte differentiation in mouse ST-13 cells assessed as triglyceride accumulation after 11 days by Fletcher's method; format: functional, cell-based
# ST-13 [3] = assay: Induction of adipocyte differentiation in mouse ST-13 cells assessed as stimulation of adipsin mRNA expression at 0.1 to 30 uM within 11 days by semi-quantitative RT-PCR; format: functional, cell-based
# ST-13 [4] = assay: Induction of adipocyte differentiation in mouse ST-13 cells assessed as stimulation of adipocyte P2 mRNA expression at 0.1 to 30 uM within 11 days by semi-quantitative RT-PCR; format: functional, cell-based
# ST-13 [5] = assay: Induction of adiponectin secretion in mouse ST-13 cells after 11 days by ELISA; format: functional, cell-based
# [6] = Induction of adiponectin secretion in mouse ST-13 cells at 10 uM after 11 days by ELISA relative to control; format: functional
# ST-13 [7] = assay: Induction of adiponectin protein secretion in mouse ST-13 cells assessed as adiponectin mRNA level after 11 days by semi-quantitative RT-PCR; format: functional, cell-based
# ST-13 [8] = assay: Induction of adipocyte differentiation in mouse ST-13 cells assessed as increase in PPARgamma2 mRNA level after 11 days by semi-quantitative RT-PCR relative to control; format: functional, cell-based
# [9] = biological target: T1, Peroxisome proliferator-activated receptor gamma (Homo sapiens) (UniProt P37231); assay: Agonist activity at Gal4-fused human PPARgamma expressed in african green monkey COS1 cells at 30 uM by luciferase reporter gene assay; format: functional, cell-based; details: COS-1
# T1 sequence (whole entry): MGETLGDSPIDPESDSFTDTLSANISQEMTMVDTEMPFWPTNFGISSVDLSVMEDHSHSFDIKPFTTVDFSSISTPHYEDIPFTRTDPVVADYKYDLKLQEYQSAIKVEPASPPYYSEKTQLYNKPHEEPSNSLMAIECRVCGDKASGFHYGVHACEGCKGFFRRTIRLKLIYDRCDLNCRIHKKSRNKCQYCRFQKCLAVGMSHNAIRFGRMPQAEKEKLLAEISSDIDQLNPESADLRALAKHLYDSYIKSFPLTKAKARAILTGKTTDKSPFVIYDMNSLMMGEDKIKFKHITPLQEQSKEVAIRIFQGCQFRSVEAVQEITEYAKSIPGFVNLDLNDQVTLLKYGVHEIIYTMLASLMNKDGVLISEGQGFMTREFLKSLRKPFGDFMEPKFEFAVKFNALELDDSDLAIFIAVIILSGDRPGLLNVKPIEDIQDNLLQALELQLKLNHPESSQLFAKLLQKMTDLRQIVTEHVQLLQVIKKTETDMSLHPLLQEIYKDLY
# ST-13 [10] = assay: Induction of preadipocyte differentiation in mouse ST-13 cells assessed as lipid accumulation at 5 uM within 11 days by oil red-staining relative to control; format: functional, cell-based
SMILES,Activity (ST-13 [1]),Activity (ST-13 [2]),Activity (ST-13 [3]),Activity (ST-13 [4]),Activity (ST-13 [5]),Activity [6] [%],Activity (ST-13 [7]),Activity (ST-13 [8]),Activity [9],Activity (ST-13 [10])
COc1ccc(-c2cc(=O)c3c(OC)c(OC)c(OC)c(OC)c3o2)cc1OC [NOBILETIN],Active,Dose-dependent effect,Active,Active,Dose-dependent effect,340,Dose-dependent effect,Active,inactive,–
COc1ccc(-c2cc(=O)c3c(OC)cc(OC)c(OC)c3o2)cc1,–,–,–,–,Active,–,–,–,–,–
Cc1c(C)c2c(c(C)c1O)CCC(C)(COc1ccc(CC3SC(=O)NC3=O)cc1)O2 (stereo unspecified),–,–,–,–,–,–,–,–,–,Active
